Measurements published in patent US6603025B1, “Method of production of benzofuranone oximes” (Bayer Aktiengesellschaft, priority 1999, dated 2003).

Experiments:
[1] = log P; format: physicochemical
[2] = stated in text after the preparation example
[3] = table of benzofuranone oximes prepared analogously to Example 2
[4] = Table 1, benzofuranyl alkanoates prepared analogously to Example 3

Structure (SMILES)	melting point	logP [1, 3]	logP [1, 4]	other results
O/N=C1\COc2ccccc21 [Example 2]	–	–	–	logP [1, 2]: 1.44
O/N=C1\COc2cc(C(F)(F)F)ccc21 [Example 11]	150 °C (dec.)	2.38	–	–
CO/N=C1\COc2ccccc21 [Example 1, O-methyl benzofuran oxime]	–	–	–	logP [1, 2]: 2.38
COc1ccc2c(OC(C)=O)coc2c1 [Example 8]	–	–	2.65	–
CC(=O)Oc1coc2cc(C(F)(F)F)ccc12 [Example 6]	27 °C	–	3.38	–

Now from value to molecule, other results behind:

melting point	logP [1, 3]	logP [1, 4]	Structure (SMILES)	other results
32 to 36 °C	–	3.09	CC(=O)Oc1coc2cc(C)ccc12 [Example 7]	–
–	1.52	–	COc1ccc2c(c1)OC/C2=N\O [Example 13]	–
–	1.79	–	Cc1ccc2c(c1)OC/C2=N\O [Example 12]	–
